The values that follow come from patent US20250382344A1, “Soluble GLP1/GIP/NPY2 Receptor Triple Agonists” (Boehringer Ingelheim International GmH, priority 2024, published 2025).

This series in a line: Solubility in 0.1 M phosphate buffer at pH 7. The series is classed as physicochemical. Conditions: 0.1 M phosphate buffer at pH 7, 10 mg/mL final peptide concentration, shaking 2 hours at room temperature, peptides as TFA-salts; measured sample pH 6.5-7.0; read-out: Solubility.
Regarding `CC[C@H](C)[C@H](NC(=O)[C@H](CC(C)C)NC(=O)[C@H](Cc1c[nH]cn1)NC(=O)[C@H](CCCNC(=N)N)NC(=O)[C@@H](NC(=O)[C@H](Cc1ccccc1)NC(=O)[C@H](C)NC(=O)C(C)(C)NC(=O)[C@H](CCC(N)=O)NC(=O)[C@H](C)NC(=O)[C@H](CCC(N)=O)NC(=O)[C@H](CCCCN)NC(=O)[C@H](CCC(=O)O)NC(=O)[C@H](CC(C)C)NC(=O)C(C)(C)NC(=O)[C@@H](NC(=O)[C@H](CO)NC(=O)[C@H](Cc1ccc(O)cc1)NC(=O)[C@H](CC(=O)O)NC(=O)[C@H](CO)NC(=O)[C@@H](NC(=O)[C@H](Cc1ccccc1)NC(=O)[C@@H](NC(=O)CNC(=O)[C@H](CCC(=O)O)NC(=O)C(C)(C)NC(=O)[C@@H](N)Cc1ccc(O)cc1)[C@@H](C)O)[C@@H](C)O)[C@@H](C)CC)C(C)C)C(=O)N[C@@H](CC(N)=O)C(=O)N[C@@H](CCCCNC(=O)COCCOCCNC(=O)CC[C@H](NC(=O)CC[C@H](NC(=O)CC[C@H](NC(=O)CC[C@H](NC(=O)CCCCCCCCCCCCCCCCC(=O)O)C(=O)O)C(=O)O)C(=O)O)C(=O)O)C(=O)NC(C)(C)C(=O)N[C@H](C(=O)N[C@@H](CCCNC(=N)N)C(=O)N[C@@H](CCC(N)=O)C(=O)N[C@@H](CCCNC(=N)N)C(=O)N[C@@H](Cc1ccc(O)cc1)C(N)=O)[C@@H](C)O` [Compound 110, Y-Aib-E-G-T-F-T-S-D-Y-S-I-Aib-L-E-K-Q-A-Q-Aib-A-F-V-R-H-L-I-N-K(1,3)-Aib-T-R-Q-R-Y-NH2.C18DA-gGlu-gGlu-gGlu-gGlu-OEG(1,2)], the solubility (as a rule, the dissolved amount per volume that the medium holds) is 800 µg/mL. Turning to `CC[C@H](C)[C@H](NC(=O)[C@H](CC(C)C)NC(=O)[C@H](Cc1c[nH]cn1)NC(=O)[C@H](CCCNC(=N)N)NC(=O)[C@@H](NC(=O)[C@H](Cc1ccccc1)NC(=O)[C@H](C)NC(=O)C(C)(C)NC(=O)[C@H](C)NC(=O)[C@H](C)NC(=O)[C@H](CCC(N)=O)NC(=O)[C@H](CCCCN)NC(=O)[C@H](CCC(=O)O)NC(=O)[C@H](CC(C)C)NC(=O)C(C)(C)NC(=O)[C@@H](NC(=O)[C@H](CO)NC(=O)[C@H](Cc1ccc(O)cc1)NC(=O)[C@H](CC(=O)O)NC(=O)[C@H](CO)NC(=O)[C@@H](NC(=O)[C@H](Cc1ccccc1)NC(=O)[C@@H](NC(=O)CNC(=O)[C@H](CCC(=O)O)NC(=O)C(C)(C)NC(=O)[C@@H](N)Cc1ccc(O)cc1)[C@@H](C)O)[C@@H](C)O)[C@@H](C)CC)C(C)C)C(=O)N[C@@H](CC(N)=O)C(=O)N[C@@H](CCCCNC(=O)[C@@H](N)CCCCNC(=O)CC[C@H](NC(=O)CC[C@H](NC(=O)CC[C@H](NC(=O)CC[C@H](NC(=O)CC[C@H](NC(=O)CC[C@H](NC(=O)CCCCCCCCCCCCCCCCC(=O)O)C(=O)O)C(=O)O)C(=O)O)C(=O)O)C(=O)O)C(=O)O)C(=O)NC(C)(C)C(=O)N[C@H](C(=O)N[C@@H](CCCNC(=N)N)C(=O)N[C@@H](CCC(N)=O)C(=O)N[C@@H](CCCNC(=N)N)C(=O)N[C@@H](Cc1ccc(O)cc1)C(N)=O)[C@@H](C)O` [Compound 111, Y-Aib-E-G-T-F-T-S-D-Y-S-I-Aib-L-E-K-Q-A-A-Aib-A-F-V-R-H-L-I-N-K(1,3)-Aib-T-R-Q-R-Y-NH2.C18DA-gGlu-gGlu-gGlu-gGlu-gGlu-gGlu-eLys(1,2)], the solubility was found to be 4000 µg/mL. In the case of `CC[C@H](C)[C@H](NC(=O)[C@H](CC(C)C)NC(=O)[C@H](Cc1c[nH]cn1)NC(=O)[C@H](CCCNC(=N)N)NC(=O)[C@@H](NC(=O)[C@H](Cc1ccccc1)NC(=O)[C@H](C)NC(=O)C(C)(C)NC(=O)[C@H](CCC(N)=O)NC(=O)[C@H](C)NC(=O)[C@H](CCC(N)=O)NC(=O)[C@H](CCCCN)NC(=O)[C@H](CCC(=O)O)NC(=O)[C@H](CC(C)C)NC(=O)C(C)(C)NC(=O)[C@H](CCC(=O)O)NC(=O)[C@H](CO)NC(=O)[C@H](Cc1ccc(O)cc1)NC(=O)[C@H](CC(=O)O)NC(=O)[C@H](CO)NC(=O)[C@@H](NC(=O)[C@H](Cc1ccccc1)NC(=O)[C@@H](NC(=O)CNC(=O)[C@H](CCC(=O)O)NC(=O)C(C)(C)NC(=O)[C@@H](N)Cc1ccc(O)cc1)[C@@H](C)O)[C@@H](C)O)C(C)C)C(=O)N[C@@H](CC(N)=O)C(=O)N[C@@H](CCCCNC(=O)[C@@H](N)CCCCNC(=O)CC[C@H](NC(=O)CC[C@H](NC(=O)CC[C@H](NC(=O)CC[C@H](NC(=O)CC[C@H](NC(=O)CC[C@H](NC(=O)CCCCCCCCCCCCCCCCC(=O)O)C(=O)O)C(=O)O)C(=O)O)C(=O)O)C(=O)O)C(=O)O)C(=O)NC(C)(C)C(=O)N[C@H](C(=O)N[C@@H](CCCNC(=N)N)C(=O)N[C@@H](CCC(N)=O)C(=O)N[C@@H](CCCNC(=N)N)C(=O)N[C@@H](Cc1ccc(O)cc1)C(N)=O)[C@@H](C)O` [Compound 112, Y-Aib-E-G-T-F-T-S-D-Y-S-E-Aib-L-E-K-Q-A-Q-Aib-A-F-V-R-H-L-I-N-K(1,3)-Aib-T-R-Q-R-Y-NH2.C18DA-gGlu-gGlu-gGlu-gGlu-gGlu-gGlu-eLys(1,2)] it was 4400 µg/mL.

With `CC[C@H](C)[C@H](NC(=O)[C@H](CC(C)C)NC(=O)[C@H](Cc1c[nH]cn1)NC(=O)[C@H](CCCNC(=N)N)NC(=O)[C@@H](NC(=O)[C@H](Cc1ccccc1)NC(=O)[C@H](C)NC(=O)C(C)(C)NC(=O)[C@H](CCC(N)=O)NC(=O)[C@H](C)NC(=O)[C@H](CCC(N)=O)NC(=O)[C@H](CCCCN)NC(=O)[C@H](CCC(=O)O)NC(=O)[C@H](CC(C)C)NC(=O)C(C)(C)NC(=O)[C@@H](NC(=O)[C@H](CO)NC(=O)[C@H](Cc1ccc(O)cc1)NC(=O)[C@H](CC(=O)O)NC(=O)[C@H](CO)NC(=O)[C@@H](NC(=O)[C@H](Cc1ccccc1)NC(=O)[C@@H](NC(=O)CNC(=O)[C@H](CCC(=O)O)NC(=O)C(C)(C)NC(=O)[C@@H](N)Cc1ccc(O)cc1)[C@@H](C)O)[C@@H](C)O)[C@@H](C)CC)C(C)C)C(=O)N[C@@H](CC(N)=O)C(=O)N[C@@H](CCCCNC(=O)COCCOCCNC(=O)COCCOCCNC(=O)CC[C@H](NC(=O)CC[C@H](NC(=O)CC[C@H](NC(=O)CC[C@H](NC(=O)CC[C@H](NC(=O)CCCCCCCCCCCCCCCCC(=O)O)C(=O)O)C(=O)O)C(=O)O)C(=O)O)C(=O)O)C(=O)NC(C)(C)C(=O)N[C@H](C(=O)N[C@@H](CCCNC(=N)N)C(=O)N[C@@H](CCC(N)=O)C(=O)N[C@@H](CCCNC(=N)N)C(=O)N[C@@H](Cc1ccc(O)cc1)C(N)=O)[C@@H](C)O` [Compound 117, Y-Aib-E-G-T-F-T-S-D-Y-S-I-Aib-L-E-K-Q-A-Q-Aib-A-F-V-R-H-L-I-N-K(1,3)-Aib-T-R-Q-R-Y-NH2.C18DA-gGlu-gGlu-gGlu-gGlu-gGlu-OEG-OEG(1,2)], the solubility came out at 4800 µg/mL.
